According to patent US12708630B2, “Combined therapy of 4′-thio-5-aza-2′-deoxycytidine and Venetoclax” (PINOTBIO, INC., priority 2021, dated 2026):

Legend:
Assay in all cases: drug activity profiling cytotoxicity
Assay type in all cases: cell-based
[1] = system: HCT-15; details: Homo sapiens; HCT-15 cell line, Colon; read-out: Aza-T-dCyd IC50
Procedure: (§1) To obtain a biomarker for Aza-T-dCyd, drug activity profiling analysis was performed to evaluate the cytotoxicity of 200 cell lines.
(§2) The drug responsiveness analysis of Aza-T-dCyd through drug activity profiling and genomic analysis of 200 cell lines confirmed the potent efficacy of Aza-T-dCyd in various solid tumors (Table 2).

[2] = system: MES-SA; details: Homo sapiens; MES-SA cell line, Sarcoma; read-out: Aza-T-dCyd IC50
Procedure: as §1, §2

[3] = system: MG-63; details: Homo sapiens; MG-63 cell line, Bone (Osteosarcoma); read-out: Aza-T-dCyd IC50
Procedure: as §1, §2

[4] = system: OE21; details: OE21 cell line, Head and Neck; read-out: Aza-T-dCyd IC50
Procedure: as §1, §2

[5] = system: BE(2)C; details: Homo sapiens; BE(2)C cell line, CNS (Neuroblastoma); read-out: Aza-T-dCyd IC50
Procedure: as §1, §2

[6] = system: SK-MEL-3; details: Homo sapiens, SK-MEL3; SK-MEL-3 cell line, Skin (Melanoma); read-out: Aza-T-dCyd IC50
Procedure: as §1, §2

[7] = system: KHOS-240S; details: KHOS-240S cell line, Bone (Osteosarcoma); read-out: Aza-T-dCyd IC50
Procedure: as §1, §2

[8] = system: 22Rv1; details: Homo sapiens; 22Rv1 cell line, Prostate; read-out: Aza-T-dCyd IC50
Procedure: as §1, §2

[9] = system: HT-1197; details: Homo sapiens, HT1197; HT-1197 cell line, Bladder; read-out: Aza-T-dCyd IC50
Procedure: as §1, §2

[10] = system: NCI-H747; details: Homo sapiens; NCI-H747 cell line, Colon; read-out: Aza-T-dCyd IC50
Procedure: as §1, §2

[11] = system: MCF7; details: Homo sapiens; MCF7 cell line, Breast; read-out: Aza-T-dCyd IC50
Procedure: as §1, §2

[12] = system: A-673; details: Homo sapiens, A673; A-673 cell line, Sarcoma; read-out: Aza-T-dCyd IC50
Procedure: as §1, §2

[13] = system: OE19; details: Homo sapiens; OE19 cell line, Head and Neck; read-out: Aza-T-dCyd IC50
Procedure: as §1, §2

[14] = system: HeLa; details: Homo sapiens; HeLa cell line, Female GU (Cervix); read-out: Aza-T-dCyd IC50
Procedure: as §1, §2

[15] = system: UM-UC-3; details: Homo sapiens, UMUC3; UM-UC-3 cell line, Bladder; read-out: Aza-T-dCyd IC50
Procedure: as §1, §2

[16] = system: Capan-1; details: Homo sapiens; Capan-1 cell line, Pancreas; read-out: Aza-T-dCyd IC50
Procedure: as §1, §2

[17] = system: JAR; details: JAR cell line, Placenta; read-out: Aza-T-dCyd IC50
Procedure: as §1, §2

[18] = system: MALME3M; details: Homo sapiens, Malme-3M; MALME3M cell line, Skin (Melanoma); read-out: Aza-T-dCyd IC50
Procedure: as §1, §2

[19] = system: MV-4-11; details: Homo sapiens, MV4-11; MV-4-11 cell line, AML; read-out: Aza-T-dCyd IC50
Procedure: as §1, §2

[20] = system: BC-1; details: Homo sapiens, BC1; BC-1 cell line, B-cell lymphoma; read-out: Aza-T-dCyd IC50
Procedure: as §1, §2

[21] = system: SK-PN-DW; details: SK-PN-DW cell line, Sarcoma; read-out: Aza-T-dCyd IC50
Procedure: as §1, §2

[22] = system: DK-MG; details: DK-MG cell line, CNS (Glioma); read-out: Aza-T-dCyd IC50
Procedure: as §1, §2

[23] = system: C32; details: Homo sapiens; C32 cell line, Skin (Melanoma); read-out: Aza-T-dCyd IC50
Procedure: as §1, §2

[24] = system: Daoy; details: Homo sapiens; Daoy cell line, CNS (Medulloblastoma); read-out: Aza-T-dCyd IC50
Procedure: as §1, §2

[25] = system: NCI-H295R; details: Homo sapiens; NCI-H295R cell line, Endocrine (Adrenal gland); read-out: Aza-T-dCyd IC50
Procedure: as §1, §2

[26] = system: CGTH-W-1; details: Homo sapiens; CGTH-W-1 cell line, Endocrine (Thyroid); read-out: Aza-T-dCyd IC50
Procedure: as §1, §2

[27] = system: EM-2; details: Homo sapiens; EM-2 cell line, CML; read-out: Aza-T-dCyd IC50
Procedure: as §1, §2

[28] = system: NTERA-2 cl.D1; details: Homo sapiens; NTERA-2 cl.D1 cell line, Testis; read-out: Aza-T-dCyd IC50
Procedure: as §1, §2

[29] = system: NCI-H69; details: Homo sapiens; NCI-H69 cell line, Lung (SCLC); read-out: Aza-T-dCyd IC50
Procedure: as §1, §2

[30] = system: HL-60; details: Homo sapiens; HL-60 cell line, AML; read-out: Aza-T-dCyd IC50
Procedure: as §1, §2

[31] = system: RPMI 8226; details: Homo sapiens; RPMI 8226 cell line, B-cell myeloma; read-out: Aza-T-dCyd IC50
Procedure: as §1, §2

Compound: Nc1ncn([C@H]2CC(O)[C@@H](CO)S2)c(=O)n1 (stereo partly shown) [Aza-T-dCyd, 4′-thio-5-aza-2′-deoxycytidine]
- IC50 [1]: 1020 nM
- IC50 [2]: 135 nM
- IC50 [3]: 990 nM
- IC50 [4]: 152 nM
- IC50 [5]: 373 nM
- IC50 [6]: 522 nM
- IC50 [7]: 254 nM
- IC50 [8]: 2710 nM
- IC50 [9]: 7130 nM
- IC50 [10]: 319 nM
- IC50 [11]: 6470 nM
- IC50 [12]: 698 nM
- IC50 [13]: > 10000 nM
- IC50 [14]: 1810 nM
- IC50 [15]: 289 nM
- IC50 [16]: 3320 nM
- IC50 [17]: 296 nM
- IC50 [18]: 7450 nM
- IC50 [19]: 183 nM
- IC50 [20]: 338 nM
- IC50 [21]: 847 nM
- IC50 [22]: > 10000 nM
- IC50 [23]: > 10000 nM
- IC50 [24]: 3610 nM
- IC50 [25]: > 10000 nM
- IC50 [26]: 143 nM
- IC50 [27]: 255 nM
- IC50 [28]: 42.7 nM
- IC50 [29]: > 10000 nM
- IC50 [30]: 514 nM
- IC50 [31]: 3270 nM
